According to ChEMBL document CHEMBL5625235, “Discovery of X10g as a selective PROTAC degrader of Hsp90α protein for treating breast cancer” (Eur J Med Chem, 2023):
Activity calls are given as the source filed them. The calls are words filed in the database; no cut-off is given here.

What was measured:
[1] = system: MDA-MB-231; assay: Antiproliferative activity against human MDA-MB-231 cells assessed as inhibition of cell proliferation incubated for 72 hrs by MTT assay; type: functional, cell-based; settings: MDA-MB-231, 72 h
[2] = system: MCF7; assay: Antiproliferative activity against human MCF7 cells assessed as inhibition of cell proliferation incubated for 72 hrs by MTT assay; type: functional, cell-based; settings: MCF7, 72 h
[3] = target: T1, Protein cereblon/Heat shock protein HSP 90-beta (Homo sapiens) (UniProt P08238+Q96SW2); assay: PROTAC activity at CRBN/HSP90beta in human MCF7 cells assessed as induction of HSP90beta degradation at 0.5 uM incubated for 8 hrs by Western blot analysis; type: cell-based
[4] = target: T2, Protein cereblon/Heat shock protein HSP 90-alpha (Homo sapiens, UniProt P07900+Q96SW2); assay: PROTAC activity at CRBN/HSP90alpha in human MCF7 cells assessed as induction of HSP90alpha degradation at 0.5 uM incubated for 8 hrs by Western blot analysis; type: cell-based
[5] = system: MDA-MB-468; assay: Antiproliferative activity against human MDA-MB-468 cells assessed as inhibition of cell proliferation incubated for 72 hrs by MTT assay; type: functional, cell-based; settings: MDA-MB-468, 72 h
[6] = system: MX1; assay: Antiproliferative activity against human MX1 cells assessed as inhibition of cell proliferation incubated for 72 hrs by MTT assay; type: functional, cell-based; settings: MX1, 72 h
[7] = system: MCF7; assay: Potency index, ratio of AT13387 IC50 to test compound IC50 for antiproliferative activity against human MCF7 cells assessed as inhibition of cell proliferation incubated for 72 hrs by MTT assay; type: functional
[8] = AUC(0 to infinity) in rat at 15 mg/kg, ip administered as single dose and measured at 5 to 480 mins by LC-MS analysis; type: ADME, organism-based; settings: in vivo, time 5-480 min
[9] = Toxicity in BALB/c mouse implanted with mouse 4T1 cells assessed as mortality at 60 mg/kg, ip administered daily for 20 days; type: organism-based; settings: in vivo, 480 h, time 20 day
[10] = Half-life in rat at 15 mg/kg, ip administered as single dose and measured at 5 to 480 mins by LC-MS analysis; type: ADME, organism-based; settings: in vivo, time 5-480 min
[11] = target: T2, Protein cereblon/Heat shock protein HSP 90-alpha; assay: PROTAC activity at CRBN/HSP90alpha in human MCF7 cells assessed as induction of survivin degradation at 0.5 uM incubated for 8 hrs by Western blot analysis; type: cell-based
[12] = Toxicity in BALB/c mouse implanted with mouse 4T1 cells assessed as effect on body weight at 60 mg/kg, ip administered daily for 20 days; type: organism-based; settings: in vivo, 480 h, time 20 day
[13] = target: T2, Protein cereblon/Heat shock protein HSP 90-alpha; assay: Binding affinity to CRBN/HSP90alpha (unknown origin) assessed as ternary complex formation; type: protein assay
[14] = target: T2, Protein cereblon/Heat shock protein HSP 90-alpha; assay: PROTAC activity at CRBN/HSP90alpha in human MCF7 cells assessed as induction of HSP90alpha degradation by measuring maximal efficacy at 0.1 to 5 uM incubated for 8 hrs by Western blot analysis relative to control; type: cell-based; settings: dose 0.1-5 µM
[15] = system: 4T1; assay: Antitumor activity against mouse 4T1 cells implanted in BALB/c mouse assessed as tumor growth inhibition at 60 mg/kg, ip administered daily for 20 days relative to control; type: functional; settings: 4T1, 480 h, time 20 day, read-out: TGI
[16] = Cmax in rat at 15 mg/kg, ip administered as single dose and measured at 5 to 480 mins by LC-MS analysis; type: ADME, organism-based; settings: in vivo, time 5-480 min
[17] = target: T2, Protein cereblon/Heat shock protein HSP 90-alpha; assay: PROTAC activity at CRBN/HSP90alpha in human MCF7 cells assessed as induction of HSP90alpha degradation incubated for 8 hrs by Western blot analysis; type: cell-based
[18] = Tmax in rat at 15 mg/kg, ip administered as single dose and measured at 5 to 480 mins by LC-MS analysis; type: ADME, organism-based; settings: in vivo, time 5-480 min
[19] = system: 4T1; assay: Antitumor activity against mouse 4T1 cells implanted in BALB/c mouse assessed as reduction in tumor weight at 60 mg/kg, ip administered daily for 20 days; type: functional, organism-based; settings: time 20.0 day
[20] = target: T2, Protein cereblon/Heat shock protein HSP 90-alpha; assay: PROTAC activity at CRBN/HSP90alpha in human MCF7 cells assessed as induction of HSP90alpha degradation by measuring maximal efficacy at high concentration incubated for 8 hrs by Western blot analysis; type: cell-based
[21] = target: T1, Protein cereblon/Heat shock protein HSP 90-beta (Homo sapiens); assay: PROTAC activity at CRBN/HSP90beta in human MCF7 cells assessed as induction of CDK4 degradation at 0.5 uM incubated for 8 hrs by Western blot analysis; type: cell-based
[22] = AUCall in rat at 15 mg/kg, ip administered as single dose and measured at 5 to 480 mins by LC-MS analysis; type: ADME, organism-based; settings: in vivo, time 5-480 min
[23] = target: T2, Protein cereblon/Heat shock protein HSP 90-alpha; assay: PROTAC activity at CRBN/HSP90alpha in human MCF7 cells assessed as induction of HSP90alpha degradation at 0.5 uM incubated for 8 hrs in presence of AT13387 by Western blot analysis; type: cell-based
[24] = target: T2, Protein cereblon/Heat shock protein HSP 90-alpha; assay: PROTAC activity at CRBN/HSP90alpha in human MCF7 cells assessed as induction of HSP90alpha degradation at 0.5 uM incubated for 8 hrs in presence of MG132 by Western blot analysis; type: cell-based
[25] = target: T2, Protein cereblon/Heat shock protein HSP 90-alpha; assay: PROTAC activity at CRBN/HSP90alpha in human MCF7 cells assessed as induction of HSP90alpha degradation at 0.5 uM incubated for 8 hrs in presence of MLN4924 by Western blot analysis; type: cell-based
[26] = target: T2, Protein cereblon/Heat shock protein HSP 90-alpha; assay: PROTAC activity at CRBN/HSP90alpha in human MCF7 cells assessed as induction of HSP90alpha degradation at 0.5 uM incubated for 8 hrs in presence of pomalidomide by Western blot analysis; type: cell-based
[27] = target: Heat shock protein HSP 90-alpha (Homo sapiens, UniProt P07900); assay: Inhibition of 6His-tagged human HSP90alpha N-terminal domain (1 to 223 residues) expressed in Escherichia coli BL21 DE3 cells incubated for 24 hrs by fluorescence polarization assay
[28] = target: Heat shock protein HSP 90-beta (Homo sapiens, UniProt P08238); assay: Inhibition of HSP90beta (unknown origin) incubated for 24 hrs by fluorescence polarization assay
Heat shock protein HSP 90-beta, sequence (P08238 whole entry): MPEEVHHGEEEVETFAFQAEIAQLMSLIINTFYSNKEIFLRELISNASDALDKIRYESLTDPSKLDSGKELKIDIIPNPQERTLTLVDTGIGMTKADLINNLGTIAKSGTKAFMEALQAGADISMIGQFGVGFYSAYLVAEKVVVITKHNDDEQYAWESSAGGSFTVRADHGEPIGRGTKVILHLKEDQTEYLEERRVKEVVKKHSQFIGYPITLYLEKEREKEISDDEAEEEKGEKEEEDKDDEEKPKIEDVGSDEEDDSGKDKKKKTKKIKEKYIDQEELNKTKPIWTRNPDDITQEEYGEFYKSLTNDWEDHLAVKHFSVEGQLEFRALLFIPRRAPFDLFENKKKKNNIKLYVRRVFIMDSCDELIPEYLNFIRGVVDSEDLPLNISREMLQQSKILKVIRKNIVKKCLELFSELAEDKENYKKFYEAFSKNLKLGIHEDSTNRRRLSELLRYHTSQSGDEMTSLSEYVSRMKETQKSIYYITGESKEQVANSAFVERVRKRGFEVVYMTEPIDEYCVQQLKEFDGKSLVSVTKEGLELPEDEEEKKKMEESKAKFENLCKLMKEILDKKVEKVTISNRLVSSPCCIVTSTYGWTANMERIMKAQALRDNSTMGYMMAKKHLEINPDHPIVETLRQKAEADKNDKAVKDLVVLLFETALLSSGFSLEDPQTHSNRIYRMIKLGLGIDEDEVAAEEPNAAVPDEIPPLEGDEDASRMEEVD

SMILES | IC50 [1] [µM] | IC50 [2] [nM] | Activity [3] | Activity [4] | IC50 [5] [µM] | IC50 [6] [µM] | other results
CC(C)c1cc(C(=O)N2Cc3ccc(CN4CCN(CCCCCCCC(=O)Nc5cccc6c5C(=O)N(C5CCC(=O)NC5=O)C6=O)CC4)cc3C2)c(O)cc1O (stereo unspecified) | 62.8 | 6030 | inactive | inactive | 30.6 | 4.94 | –
CC(C)c1cc(C(=O)N2Cc3ccc(CN4CCN(CCCCCCC(=O)Nc5cccc6c5C(=O)N(C5CCC(=O)NC5=O)C6=O)CC4)cc3C2)ccc1O (stereo unspecified) | 51.5 | 8930 | inactive | Active | 16.5 | 12 | AUC(0-inf) [8]: 758 ng·h/mL; Activity [9]: Non-Toxic; half-life [10]: 150 min; Activity [11]: Active; Activity [12]: Non-Toxic; Activity [13]: Active; Emax [14]: 66.4%; inhibition in vivo at 60 mg/kg [15]: 54%; Cmax [16]: 302 ng/mL; DC50 [17]: 295 nM; Tmax [18]: 36 min; Activity [19]: Active; Activity [20]: inactive; Activity [21]: inactive; AUC [22]: 703 ng·h/mL; Activity [23]: inactive; Activity [24]: inactive; Activity [25]: inactive; Activity [26]: inactive
CC(C)c1cc(C(=O)N2Cc3ccc(CN4CCN(CCCCCCCC(=O)Nc5cccc6c5C(=O)N(C5CCC(=O)NC5=O)C6=O)CC4)cc3C2)ccc1O (stereo unspecified) | > 100 | 18500 | – | – | 35.9 | 63 | –
CC(C)c1cc(C(=O)N2Cc3ccc(CN4CCN(CCCC(=O)Nc5cccc6c5C(=O)N(C5CCC(=O)NC5=O)C6=O)CC4)cc3C2)ccc1O (stereo unspecified) | 72.8 | 7500 | – | – | 41.6 | 40.8 | –
Nc1cccc2c1CN(C1CCC(=O)NC1=O)C2=O (stereo unspecified) [LENALIDOMIDE] | > 100 | > 100000 | – | – | > 100 | > 100 | –
CC(C)c1cc(C(=O)N2Cc3ccccc3C2)ccc1O | – | – | – | – | – | – | IC50 [27]: 410 nM; IC50 [28]: 4.47 µM

Continued, in another order:

IC50 [1] [µM] | IC50 [2] [nM] | Activity [3] | Activity [4] | IC50 [5] [µM] | SMILES | IC50 [6] [µM] | other results
6.8 | 30 | inactive | inactive | 6.19 | CC(C)c1cc(C(=O)N2Cc3ccc(CN4CCN(CCC(=O)Nc5cccc6c5C(=O)N(C5CCC(=O)NC5=O)C6=O)CC4)cc3C2)c(O)cc1O (stereo unspecified) | 0.09 | Ratio IC50 [7]: ~35
7.69 | 2030 | inactive | inactive | 5.1 | CC(C)c1cc(C(=O)N2Cc3ccc(CN4CCN(C(=O)CNc5cccc6c5CN(C5CCC(=O)NC5=O)C6=O)CC4)cc3C2)c(O)cc1O (stereo unspecified) | 3.46 | –
2.04 | 20 | inactive | inactive | 3.03 | CC(C)c1cc(C(=O)N2Cc3ccc(CN4CCN(CCCC(=O)Nc5cccc6c5C(=O)N(C5CCC(=O)NC5=O)C6=O)CC4)cc3C2)c(O)cc1O (stereo unspecified) | 0.22 | –
5.11 | 580 | inactive | inactive | 27.2 | CC(C)c1cc(C(=O)N2Cc3ccc(CN4CCN(CCCCCC(=O)Nc5cccc6c5C(=O)N(C5CCC(=O)NC5=O)C6=O)CC4)cc3C2)c(O)cc1O (stereo unspecified) | 0.03 | –
12.1 | 920 | inactive | inactive | 3.67 | CC(C)c1cc(C(=O)N2Cc3ccc(CN4CCN(CCCCCCC(=O)Nc5cccc6c5C(=O)N(C5CCC(=O)NC5=O)C6=O)CC4)cc3C2)c(O)cc1O (stereo unspecified) | 0.31 | –
